The source of these data is PubChem BioAssay (NCI).

Some test systems named below: PC-3 prostate; HCC-2998 colon; SNB-19 CNS; U251 CNS; TK-10 renal; T-47D breast; A498 renal; BT-549 breast; MCF7 breast; MDA-MB-435; M14 melanoma; NCI-H460 lung; COLO 205 colon; OVCAR-5 ovarian; NCI/ADR-RES ovarian; NCI-H522 lung.
Holding throughout (assay): DTP human tumour cell line panel, 48 h

Structures are written as SMILES.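 1) Cells in 96-well plates. 2) Compound, 48 h, 5 concentrations. 3) Linear interpolation between surrounding doses. 4) Unreached endpoint = highest concentration. GI50 marks 50% less growth. At the TGI there is no net growth.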 Bounds are passed on as bounds.

Usually TGI stands for the concentration giving total growth inhibition. High values mean less potent growth arrest, low ones more potent growth arrest. Consider `O=C1C=CC(=O)c2c(O)c(Br)c(Br)c(O)c21`, for which the TGI in the assay on PC-3 prostate was 29.6 µM; in the assay with HCC-2998 colon, 35.2 µM; in the assay on SNB-19 CNS it was 33.1 µM; in the assay with U251 CNS, 33.7 µM; in the assay with TK-10 renal it was 6.12 µM; in the assay on T-47D breast, 6.04 µM. Besides, the TGI in the assay with A498 renal was 36.9 µM; in the assay with BT-549 breast, 27.1 µM; with MCF7 breast, 5.48 µM; in the assay on MDA-MB-435 it was 8.19 µM; in the assay on M14 melanoma, 3.79 µM; in the assay with NCI-H460 lung, 34.1 µM. For the same compound, the figures for the TGI in the assay with COLO 205 colon, in the assay with OVCAR-5 ovarian and in the assay with NCI/ADR-RES ovarian were 2.46 µM, 30.8 µM and 58.7 µM, respectively.
For `COc1cc(C(=O)CC2OC(=O)C(Cl)=C2Cl)ccc1Cl` (stereo not given), the TGI with NCI-H522 lung, with HCC-2998 colon, in the assay with SNB-19 CNS, in the assay on U251 CNS, in the assay on TK-10 renal and in the assay with A498 renal was greater than 100 µM each time. The TGI in the assay on M14 melanoma, with NCI-H460 lung, with COLO 205 colon and in the assay on OVCAR-5 ovarian was greater than 100 µM throughout.
Take `O=C1c2ccccc2C(=O)c2c(Nc3cc4c5c(ccc6c7ccc8c9c(cc(Nc%10cccc%11c%10C(=O)c%10ccccc%10C%11=O)c(c3c56)c97)-c3ccccc3C8=O)C(=O)c3ccccc3-4)cccc21`: the TGI in the assay with PC-3 prostate is greater than 100 µM; with NCI-H522 lung it was greater than 100 µM; with SNB-19 CNS, greater than 100 µM; in the assay on U251 CNS, 55 µM; in the assay on TK-10 renal, 96.1 µM; in the assay with T-47D breast it was greater than 100 µM. The TGI in the assay with A498 renal is 65.1 µM; in the assay with BT-549 breast, greater than 100 µM; with MCF7 breast, greater than 100 µM; with MDA-MB-435, greater than 100 µM; in the assay with M14 melanoma, greater than 100 µM; in the assay with COLO 205 colon, greater than 100 µM. Moreover, the TGI in the assay on OVCAR-5 ovarian and in the assay on NCI/ADR-RES ovarian was greater than 100 µM each time.
With `CO/N=C\c1cc(O)c(O)c(/C=N/OC)c1`, the TGI in the assay with PC-3 prostate, in the assay with NCI-H522 lung, in the assay with HCC-2998 colon, in the assay with SNB-19 CNS, in the assay with U251 CNS and in the assay on TK-10 renal was greater than 100 µM each time. Further, the TGI was greater than 100 µM with T-47D breast; greater than 100 µM with A498 renal; greater than 100 µM in the assay with BT-549 breast; 94.8 µM in the assay with MCF7 breast; greater than 100 µM in the assay with MDA-MB-435; greater than 100 µM in the assay on M14 melanoma. Further, the total growth inhibition concentration (TGI) with NCI-H460 lung, in the assay on COLO 205 colon, with OVCAR-5 ovarian and in the assay with NCI/ADR-RES ovarian was greater than 100 µM in each case.
Regarding `Cc1nc2[nH]ncn2c(=O)c1CCCl`, the TGI in the assay on PC-3 prostate, with NCI-H522 lung, in the assay with HCC-2998 colon, with SNB-19 CNS, with U251 CNS and in the assay with TK-10 renal was greater than 10 µM throughout. Also, the TGI in the assay on T-47D breast, in the assay on A498 renal, in the assay with MCF7 breast, with MDA-MB-435, with M14 melanoma and with NCI-H460 lung was greater than 10 µM each time. Besides, the TGI in the assay with COLO 205 colon, with OVCAR-5 ovarian and in the assay with NCI/ADR-RES ovarian was greater than 10 µM throughout.
As for `O=C(c1ccccc1)c1nc2ccc(Cl)cc2c2c1CCCO2`, the TGI with NCI-H522 lung, in the assay on HCC-2998 colon, with SNB-19 CNS, in the assay on U251 CNS, in the assay with TK-10 renal and in the assay with M14 melanoma was greater than 100 µM throughout. Also, the TGI in the assay on NCI-H460 lung, in the assay on COLO 205 colon and in the assay on OVCAR-5 ovarian was greater than 100 µM in each case.
What is called GI50 is the concentration giving 50% growth inhibition. `N#C/C(=C\c1ccc(Br)cc1)n1nnc2cc(Cl)c(Cl)cc21`: the GI50 with TK-10 renal was 3.32 µM; with A498 renal, 1.78 µM; in the assay on MCF7 breast it was 1.51 µM; in the assay with M14 melanoma, 1.92 µM. Besides, the TGI was 6.71 µM in the assay on TK-10 renal, 4.51 µM in the assay with A498 renal, greater than 100 µM in the assay with MCF7 breast and 5.03 µM in the assay on M14 melanoma.
Take `Clc1ccc(C[P+]2(c3ccccc3)CCCCC2)cc1`: the TGI with NCI-H522 lung, with HCC-2998 colon, in the assay on SNB-19 CNS, in the assay with U251 CNS, with TK-10 renal and in the assay with A498 renal was greater than 100 µM in each case. For the same compound, the TGI in the assay on M14 melanoma, in the assay with NCI-H460 lung, in the assay on COLO 205 colon and in the assay on OVCAR-5 ovarian was greater than 100 µM throughout.
As for `C[C@]12CC[C@@H]3c4ccc(O)cc4CC[C@H]3[C@@H]1CC[C@@H]2OC(=O)CCc1ccccc1`, the TGI in the assay on PC-3 prostate amounted to 34.4 µM; in the assay with NCI-H522 lung it was 32.9 µM; in the assay on HCC-2998 colon, 36.6 µM; in the assay with SNB-19 CNS, 37.7 µM; with U251 CNS it was 38.1 µM; in the assay on TK-10 renal, 33.9 µM. The TGI is 37 µM in the assay on T-47D breast; 32.6 µM in the assay on A498 renal; 34.2 µM in the assay with BT-549 breast; 37.7 µM with MCF7 breast; 45.1 µM in the assay on MDA-MB-435; 37.8 µM in the assay with M14 melanoma. Also, the TGI was 42.6 µM in the assay on NCI-H460 lung, 37.1 µM in the assay with COLO 205 colon, greater than 100 µM with OVCAR-5 ovarian and 33.8 µM in the assay on NCI/ADR-RES ovarian.
With `O=C(c1ccccc1)C1C(c2ccccc2)N1S(=O)(=O)c1ccccc1` (stereo not given), the TGI with PC-3 prostate, in the assay with NCI-H522 lung, in the assay on HCC-2998 colon, with U251 CNS, with TK-10 renal and in the assay on T-47D breast was greater than 100 µM each time. In addition, the TGI with BT-549 breast, in the assay with MCF7 breast, in the assay with MDA-MB-435, in the assay on M14 melanoma, with COLO 205 colon and in the assay on OVCAR-5 ovarian was greater than 100 µM throughout. The TGI with NCI/ADR-RES ovarian was greater than 100 µM.
For the compound `Cc1ccc(C2COc3cc(O)c(O)cc3C2)cc1` (stereo not given), the TGI with HCC-2998 colon stood at 172 µM; in the assay with SNB-19 CNS it was 251 µM; with U251 CNS it was 94.3 µM; with A498 renal it was 130 µM; in the assay on MCF7 breast, 114 µM; with NCI-H460 lung, 236 µM. In addition, the results for the TGI in the assay with COLO 205 colon, with OVCAR-5 ovarian and in the assay with NCI/ADR-RES ovarian were 26.2 µM, 244 µM and 40.8 µM, respectively.
`CC1(C)N=C(N)N=C(N)N1c1cccc(C(=O)Nc2ccc(S(=O)(=O)F)cc2)c1`: the total growth inhibition concentration (TGI) with PC-3 prostate, in the assay on NCI-H522 lung, in the assay on SNB-19 CNS, with U251 CNS, in the assay with TK-10 renal and with T-47D breast was greater than 100 µM each time. The TGI with A498 renal, in the assay with BT-549 breast, with MCF7 breast, in the assay with MDA-MB-435, with M14 melanoma and in the assay with NCI-H460 lung was greater than 100 µM each time. In addition, the TGI with COLO 205 colon, in the assay with OVCAR-5 ovarian and in the assay on NCI/ADR-RES ovarian was greater than 100 µM in each case.
